Experimental data reported in the NIST ThermoML archive (doi:10.1021/je0342769).
Several values for one entry are separate records, joined by “and”; a condition that tells them apart may be missing. Identical values can stand only once. Numbers after ± are expanded uncertainties.

Conditions: Liquid, Closed cell (Static) method

Q: Which “vapor or sublimation pressure” value (253.31 K) does the source give for `FC(C(F)(F)F)C(F)(F)F` [1,1,1,2,3,3,3-heptafluoropropane] here?
A: 86.81 ± 0.56 kPa

Q: And the “vapor or sublimation pressure” value (253.32 K)?
A: 86.83 ± 0.56 kPa

Q: What about the “vapor or sublimation pressure” value (253.33 K) of the same compound?
A: 86.86 ± 0.56 kPa

Q: And the “vapor or sublimation pressure” value (255.21 K)?
A: 94.46 ± 0.56 kPa

Q: What about the “vapor or sublimation pressure” value (257.26 K) of the same compound?
A: 103.23 ± 0.57 kPa and 103.26 ± 0.57 kPa

Q: And the “vapor or sublimation pressure” value (259.59 K)?
A: 114.05 ± 0.57 kPa

Q: And the “vapor or sublimation pressure” value (261.28 K)?
A: 122.37 ± 0.58 kPa

Q: And the “vapor or sublimation pressure” value (263.26 K)?
A: 132.72 ± 0.58 kPa

Q: And the “vapor or sublimation pressure” value (265.17 K)?
A: 143.42 ± 0.83 kPa

Q: And the “vapor or sublimation pressure” value (267.15 K)?
A: 155.12 ± 0.83 kPa and 155.14 ± 0.83 kPa

Q: What about the “vapor or sublimation pressure” value (269.19 K) of the same compound?
A: 167.93 ± 0.84 kPa

Q: And the “vapor or sublimation pressure” value (271.14 K)?
A: 181.01 ± 0.85 kPa

Q: And the “vapor or sublimation pressure” value (273.13 K)?
A: 195.16 ± 0.85 kPa

Q: What about the “vapor or sublimation pressure” value (273.14 K) of the same compound?
A: 195.21 ± 0.85 kPa

Q: What about the “vapor or sublimation pressure” value (273.16 K) of the same compound?
A: 195.29 ± 0.85 kPa

Q: And the “vapor or sublimation pressure” value (275.15 K)?
A: 210.31 ± 0.86 kPa

Q: And the “vapor or sublimation pressure” value (275.17 K)?
A: 210.44 ± 0.86 kPa

Q: And the “vapor or sublimation pressure” value (275.18 K)?
A: 210.49 ± 0.86 kPa

Q: What about the “vapor or sublimation pressure” value (276.99 K) of the same compound?
A: 224.91 ± 0.87 kPa

Q: What about the “vapor or sublimation pressure” value (279.19 K) of the same compound?
A: 243.27 ± 0.88 kPa

Q: And the “vapor or sublimation pressure” value (281.14 K)?
A: 260.66 ± 0.89 kPa

Q: And the “vapor or sublimation pressure” value (283.18 K)?
A: 279.74 ± 0.9 kPa

Q: What about the “vapor or sublimation pressure” value (285.18 K) of the same compound?
A: 299.49 ± 0.91 kPa

Q: And the “vapor or sublimation pressure” value (285.19 K)?
A: 299.62 ± 0.91 kPa

Q: What about the “vapor or sublimation pressure” value (287.14 K) of the same compound?
A: 319.89 ± 0.93 kPa

Q: And the “vapor or sublimation pressure” value (289.07 K)?
A: 340.97 ± 0.94 kPa

Q: What about the “vapor or sublimation pressure” value (289.1 K) of the same compound?
A: 341.37 ± 0.95 kPa

Q: And the “vapor or sublimation pressure” value (291.06 K)?
A: 363.71 ± 0.96 kPa

Q: What about the “vapor or sublimation pressure” value (291.16 K) of the same compound?
A: 365.01 ± 0.96 kPa

Q: And the “vapor or sublimation pressure” value (293.04 K)?
A: 387.68 ± 0.98 kPa

Q: And the “vapor or sublimation pressure” value (293.15 K)?
A: 388.98 ± 0.98 kPa

Q: And the “vapor or sublimation pressure” value (293.23 K)?
A: 390.05 ± 0.98 kPa

Q: And the “vapor or sublimation pressure” value (295.22 K)?
A: 415.24 ± 1 kPa

Q: And the “vapor or sublimation pressure” value (295.32 K)?
A: 416.61 ± 1 kPa

Q: What about the “vapor or sublimation pressure” value (297.21 K) of the same compound?
A: 441.61 ± 1 kPa

Q: What about the “vapor or sublimation pressure” value (297.22 K) of the same compound?
A: 441.76 ± 1 kPa

Q: What about the “vapor or sublimation pressure” value (299.07 K) of the same compound?
A: 467.46 ± 1.1 kPa

Q: What about the “vapor or sublimation pressure” value (299.16 K) of the same compound?
A: 468.9 ± 1.1 kPa

Q: And the “vapor or sublimation pressure” value (301.54 K)?
A: 503.72 ± 1.1 kPa

Q: What about the “vapor or sublimation pressure” value (303.66 K) of the same compound?
A: 536.19 ± 1.1 kPa

Q: What about the “vapor or sublimation pressure” value (305.19 K) of the same compound?
A: 560.59 ± 1.1 kPa

Q: And the “vapor or sublimation pressure” value (307.19 K)?
A: 593.83 ± 1.2 kPa

Q: What about the “vapor or sublimation pressure” value (309.51 K) of the same compound?
A: 634.38 ± 1.2 kPa

Q: What about the “vapor or sublimation pressure” value (311.16 K) of the same compound?
A: 664.23 ± 1.2 kPa

Q: And the “vapor or sublimation pressure” value (313.13 K)?
A: 701.36 ± 1.3 kPa

Q: And the “vapor or sublimation pressure” value (315.11 K)?
A: 740.37 ± 1.3 kPa

Q: What about the “vapor or sublimation pressure” value (317.15 K) of the same compound?
A: 781.99 ± 1.4 kPa

Q: And the “vapor or sublimation pressure” value (317.5 K)?
A: 789.45 ± 1.4 kPa

Q: And the “vapor or sublimation pressure” value (319.51 K)?
A: 832.46 ± 1.4 kPa

Q: And the “vapor or sublimation pressure” value (321.16 K)?
A: 869.25 ± 1.5 kPa

Q: What about the “vapor or sublimation pressure” value (323.13 K) of the same compound?
A: 914.73 ± 1.6 kPa

Q: What about the “vapor or sublimation pressure” value (323.17 K) of the same compound?
A: 915.9 ± 1.6 kPa

Q: What about the “vapor or sublimation pressure” value (325.11 K) of the same compound?
A: 962.18 ± 1.6 kPa

Q: And the “vapor or sublimation pressure” value (329.17 K)?
A: 1065.4 ± 1.7 kPa

Q: And the “vapor or sublimation pressure” value (333.69 K)?
A: 1190.1 ± 1.9 kPa

Q: What about the “vapor or sublimation pressure” value (339.17 K) of the same compound?
A: 1355.8 ± 2.1 kPa

Q: And the “vapor or sublimation pressure” value (344.87 K)?
A: 1545.3 ± 2.4 kPa

Q: And the “vapor or sublimation pressure” value (349.82 K)?
A: 1725.8 ± 2.7 kPa

Q: What about the “vapor or sublimation pressure” value (353.22 K) of the same compound?
A: 1859.3 ± 2.9 kPa

Q: And the “vapor or sublimation pressure” value (357.13 K)?
A: 2022.6 ± 3.2 kPa

Q: What about the “vapor or sublimation pressure” value (361.12 K) of the same compound?
A: 2201.1 ± 3.5 kPa

Q: What about the “vapor or sublimation pressure” value (364.88 K) of the same compound?
A: 2380.9 ± 3.7 kPa

Q: What about the “vapor or sublimation pressure” value (369.16 K) of the same compound?
A: 2600 ± 4.1 kPa

Q: What about the “vapor or sublimation pressure” value (373.22 K) of the same compound?
A: 2825.1 ± 4.4 kPa and 2825.2 ± 4.4 kPa and 2825.3 ± 4.4 kPa

Q: With `FC(F)CC(F)(F)F` [1,1,1,3,3-pentafluoropropane] as the compound, how does the “vapor or sublimation pressure” value (255.22 K) read?
A: 21.93 ± 0.39 kPa

Q: What about the “vapor or sublimation pressure” value (259.37 K) of the same compound?
A: 27.28 ± 0.39 kPa and 27.27 ± 0.39 kPa

Q: What about the “vapor or sublimation pressure” value (263.27 K) of the same compound?
A: 33.25 ± 0.39 kPa and 33.24 ± 0.39 kPa

Q: What about the “vapor or sublimation pressure” value (267.31 K) of the same compound?
A: 40.47 ± 0.39 kPa

Q: And the “vapor or sublimation pressure” value (271.03 K)?
A: 48.26 ± 0.4 kPa

Q: What about the “vapor or sublimation pressure” value (275.31 K) of the same compound?
A: 58.66 ± 0.4 kPa

Q: And the “vapor or sublimation pressure” value (279.32 K)?
A: 69.99 ± 0.4 kPa and 69.98 ± 0.4 kPa

Q: And the “vapor or sublimation pressure” value (279.33 K)?
A: 69.98 ± 0.4 kPa and 69.99 ± 0.4 kPa

Q: And the “vapor or sublimation pressure” value (283.2 K)?
A: 82.37 ± 0.41 kPa and 82.36 ± 0.41 kPa

Q: What about the “vapor or sublimation pressure” value (285.08 K) of the same compound?
A: 89.02 ± 0.41 kPa and 89.05 ± 0.41 kPa

Q: What about the “vapor or sublimation pressure” value (288.91 K) of the same compound?
A: 103.68 ± 0.42 kPa and 103.67 ± 0.42 kPa

Q: And the “vapor or sublimation pressure” value (291.16 K)?
A: 113.41 ± 0.43 kPa and 113.43 ± 0.43 kPa

Q: And the “vapor or sublimation pressure” value (291.17 K)?
A: 113.42 ± 0.43 kPa

Q: What about the “vapor or sublimation pressure” value (292.62 K) of the same compound?
A: 119.97 ± 0.43 kPa and 120.01 ± 0.43 kPa

Q: And the “vapor or sublimation pressure” value (295.55 K)?
A: 134.37 ± 0.45 kPa and 134.41 ± 0.45 kPa

Q: What about the “vapor or sublimation pressure” value (298.31 K) of the same compound?
A: 149.04 ± 0.46 kPa and 149.05 ± 0.46 kPa

Q: What about the “vapor or sublimation pressure” value (300.16 K) of the same compound?
A: 159.38 ± 0.47 kPa

Q: What about the “vapor or sublimation pressure” value (313.13 K) of the same compound?
A: 250.2 ± 0.54 kPa and 250.26 ± 0.54 kPa and 250.34 ± 0.54 kPa

Q: What about the “vapor or sublimation pressure” value (317.43 K) of the same compound?
A: 287.67 ± 0.58 kPa and 287.72 ± 0.58 kPa and 287.84 ± 0.58 kPa

Q: What about the “vapor or sublimation pressure” value (321.77 K) of the same compound?
A: 329.9 ± 0.63 kPa and 329.87 ± 0.63 kPa

Q: What about the “vapor or sublimation pressure” value (327.34 K) of the same compound?
A: 390.52 ± 0.7 kPa and 390.61 ± 0.7 kPa

Q: What about the “vapor or sublimation pressure” value (333.55 K) of the same compound?
A: 467.79 ± 0.79 kPa

Q: What about the “vapor or sublimation pressure” value (344.96 K) of the same compound?
A: 639.43 ± 1 kPa

Q: And the “vapor or sublimation pressure” value (347.8 K)?
A: 688.83 ± 1.1 kPa and 688.9 ± 1.1 kPa

Q: What about the “vapor or sublimation pressure” value (351.54 K) of the same compound?
A: 757.91 ± 1.2 kPa and 757.93 ± 1.2 kPa and 757.86 ± 1.2 kPa

Q: What about the “vapor or sublimation pressure” value (354.13 K) of the same compound?
A: 808.71 ± 1.3 kPa

Q: And the “vapor or sublimation pressure” value (354.15 K)?
A: 809.38 ± 1.3 kPa

Q: And the “vapor or sublimation pressure” value (357.7 K)?
A: 883.2 ± 1.4 kPa

Q: What about the “vapor or sublimation pressure” value (362.21 K) of the same compound?
A: 984.31 ± 1.6 kPa and 984.35 ± 1.6 kPa

Q: And the “vapor or sublimation pressure” value (364.47 K)?
A: 1038.2 ± 1.6 kPa

Q: And the “vapor or sublimation pressure” value (367.1 K)?
A: 1103.6 ± 1.7 kPa

Q: What about the “vapor or sublimation pressure” value (367.11 K) of the same compound?
A: 1103.6 ± 1.7 kPa

Q: And the “vapor or sublimation pressure” value (371.11 K)?
A: 1209.3 ± 1.9 kPa

Q: What about the “vapor or sublimation pressure” value (371.12 K) of the same compound?
A: 1209.3 ± 1.9 kPa

Q: And the “vapor or sublimation pressure” value (374.81 K)?
A: 1313.1 ± 2.1 kPa

Q: And the “vapor or sublimation pressure” value (374.95 K)?
A: 1317.3 ± 2.1 kPa

Q: And the “vapor or sublimation pressure” value (377.03 K)?
A: 1378.9 ± 2.2 kPa

Q: And the “vapor or sublimation pressure” value (381.38 K)?
A: 1514.3 ± 2.4 kPa

Q: What about the “vapor or sublimation pressure” value (384.5 K) of the same compound?
A: 1617.4 ± 2.5 kPa

Q: And the “vapor or sublimation pressure” value (388.32 K)?
A: 1751.2 ± 2.8 kPa

Q: And the “vapor or sublimation pressure” value (393.64 K)?
A: 1950.8 ± 3.1 kPa
